Measured values as given in BindingDB's records for doi:10.1021/jm00367a006 (1984).

Target: dopamine D1 receptor (Rattus norvegicus)
Assay: Effective concentration that gives maximal stimulation of cyclic AMP production over the concentration range tested.

| Compound | EC50 [nM] |
| --- | --- |
| CN1Cc2c(N)cccc2C(c2ccc(O)c(O)c2)C1 (configuration not stated) [4-(8-Amino-2-methyl-1,2,3,4-tetrahydro-isoquinolin-4-yl)-benzene-1,2-diol] | 2880 |
| CN1Cc2c(N)cccc2[C@H](c2ccc(O)c(O)c2)C1 | 1870 |
